Data reported in US11780893B2, “Kv1.3 blockers” (Zealand Pharma A/S, priority 2019, dated 2023).
Bridge positions count the residues as written; N and C are the ends. Square brackets hold non-standard residues; d marks the D form. Peptide text beside a SMILES is read from it. Nle = CCCC[C@H](N)C(=O)O

Columns and labels:
[1] = biological target: Rat whole blood (Rattus norvegicus, UniProt P15384)
[2] = biological target: T1, Kv1.6 (Homo sapiens, UniProt P17658); experiment: cell-based; details: for IC50: CHO cells, whole-cell patch clamp, read-out: Potency IC50 (nM) Kv1.6; for Selectivity Kv1.6/Kv1.3: ratio IC50[Kv1.6]/IC50[Kv1.3]
T1 construct: expressed in transfected cells; host or cells: Chinese Hamster Ovary (CHO)
T1 sequence (P17658 whole entry): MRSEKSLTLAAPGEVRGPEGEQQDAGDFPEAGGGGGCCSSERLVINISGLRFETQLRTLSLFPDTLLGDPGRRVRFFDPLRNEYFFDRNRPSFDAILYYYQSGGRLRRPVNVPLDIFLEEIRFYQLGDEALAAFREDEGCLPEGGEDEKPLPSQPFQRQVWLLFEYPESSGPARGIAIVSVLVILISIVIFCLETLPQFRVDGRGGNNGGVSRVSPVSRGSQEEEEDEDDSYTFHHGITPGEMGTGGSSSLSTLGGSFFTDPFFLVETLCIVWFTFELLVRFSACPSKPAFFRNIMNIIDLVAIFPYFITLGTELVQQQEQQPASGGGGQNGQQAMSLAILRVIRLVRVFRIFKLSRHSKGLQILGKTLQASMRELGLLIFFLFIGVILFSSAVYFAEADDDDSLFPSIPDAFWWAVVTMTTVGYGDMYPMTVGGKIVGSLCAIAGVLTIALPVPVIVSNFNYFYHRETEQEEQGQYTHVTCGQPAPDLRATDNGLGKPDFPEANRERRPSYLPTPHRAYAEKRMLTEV

[3] = biological target: T2, human Kv1.3 voltage-gated K+ channel (Homo sapiens, UniProt P22001); experiment: cell-based; details: inhibition of thallium flux, CHO-DUKX cells with human Kv1.3; read-out: IC50
T2 construct: host or cells: CHO-DUKX
T2 sequence (P22001 whole entry): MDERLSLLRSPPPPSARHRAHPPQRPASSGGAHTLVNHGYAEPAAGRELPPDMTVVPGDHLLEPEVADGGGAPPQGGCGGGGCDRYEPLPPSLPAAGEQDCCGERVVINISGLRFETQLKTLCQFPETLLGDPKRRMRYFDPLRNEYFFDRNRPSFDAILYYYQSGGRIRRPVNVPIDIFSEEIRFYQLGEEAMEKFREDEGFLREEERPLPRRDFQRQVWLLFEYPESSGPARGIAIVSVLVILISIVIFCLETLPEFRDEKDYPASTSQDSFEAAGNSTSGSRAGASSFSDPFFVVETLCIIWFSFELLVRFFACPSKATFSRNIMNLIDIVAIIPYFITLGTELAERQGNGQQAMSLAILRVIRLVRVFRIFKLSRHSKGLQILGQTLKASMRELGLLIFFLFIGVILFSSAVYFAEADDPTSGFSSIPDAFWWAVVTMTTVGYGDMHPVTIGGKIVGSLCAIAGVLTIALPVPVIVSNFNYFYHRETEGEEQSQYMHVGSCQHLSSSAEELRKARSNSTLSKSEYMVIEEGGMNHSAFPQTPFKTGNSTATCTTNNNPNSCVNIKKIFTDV

[4] = biological target: T3, Kv1.1 (Homo sapiens, UniProt Q09470); experiment: cell-based; details: for IC50: CHO cells, whole-cell patch clamp, read-out: Potency IC50 (nM) Kv1.1; for Selectivity Kv1.1/Kv1.3: ratio IC50[Kv1.1]/IC50[Kv1.3]
T3 construct: expressed in transfected cells; host or cells: Chinese Hamster Ovary (CHO)
T3 sequence (Q09470 whole entry): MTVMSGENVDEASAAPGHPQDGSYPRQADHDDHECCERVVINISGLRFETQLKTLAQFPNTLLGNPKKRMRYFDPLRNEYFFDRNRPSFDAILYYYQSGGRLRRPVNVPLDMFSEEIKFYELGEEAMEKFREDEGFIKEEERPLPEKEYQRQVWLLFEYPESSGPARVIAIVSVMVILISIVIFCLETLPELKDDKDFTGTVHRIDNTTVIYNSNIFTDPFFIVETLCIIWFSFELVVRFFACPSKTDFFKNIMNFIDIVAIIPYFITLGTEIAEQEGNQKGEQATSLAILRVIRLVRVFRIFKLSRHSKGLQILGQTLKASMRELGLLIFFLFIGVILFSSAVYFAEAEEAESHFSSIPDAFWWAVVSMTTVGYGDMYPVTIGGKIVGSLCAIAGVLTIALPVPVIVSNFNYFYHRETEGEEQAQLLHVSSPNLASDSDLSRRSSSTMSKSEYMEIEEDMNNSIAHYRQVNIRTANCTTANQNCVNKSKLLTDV

[5] = biological target: T4, Kv1.3 (Homo sapiens, UniProt P22001); experiment: cell-based; details: CHO cells, whole-cell patch clamp; read-out: Potency IC50 (nM) Kv1.3
T4 construct: expressed in transfected cells; host or cells: Chinese Hamster Ovary (CHO)
T4 sequence (P22001 whole entry): as the sequence (P22001 whole entry) above

[6] = biological target: T5, Kv1.2 (Homo sapiens, UniProt P16389); experiment: cell-based; details: CHO cells, whole-cell patch clamp; read-out: Potency IC50 (nM) Kv1.2
T5 construct: expressed in transfected cells; host or cells: Chinese Hamster Ovary (CHO)
T5 sequence (P16389 whole entry): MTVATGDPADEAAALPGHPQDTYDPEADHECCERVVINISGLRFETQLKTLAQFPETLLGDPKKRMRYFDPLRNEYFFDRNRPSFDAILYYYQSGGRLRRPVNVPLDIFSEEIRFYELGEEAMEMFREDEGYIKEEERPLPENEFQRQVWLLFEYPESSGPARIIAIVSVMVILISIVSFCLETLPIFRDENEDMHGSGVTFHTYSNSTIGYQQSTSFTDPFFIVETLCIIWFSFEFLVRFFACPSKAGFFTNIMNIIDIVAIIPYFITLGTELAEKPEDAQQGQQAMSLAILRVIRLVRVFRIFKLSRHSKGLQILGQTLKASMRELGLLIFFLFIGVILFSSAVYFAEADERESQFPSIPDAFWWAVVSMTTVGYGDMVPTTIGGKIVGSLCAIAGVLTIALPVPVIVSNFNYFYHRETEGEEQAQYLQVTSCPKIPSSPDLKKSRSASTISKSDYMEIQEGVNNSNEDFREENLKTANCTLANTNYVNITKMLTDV

Chain of Rat whole blood (P15384 whole entry): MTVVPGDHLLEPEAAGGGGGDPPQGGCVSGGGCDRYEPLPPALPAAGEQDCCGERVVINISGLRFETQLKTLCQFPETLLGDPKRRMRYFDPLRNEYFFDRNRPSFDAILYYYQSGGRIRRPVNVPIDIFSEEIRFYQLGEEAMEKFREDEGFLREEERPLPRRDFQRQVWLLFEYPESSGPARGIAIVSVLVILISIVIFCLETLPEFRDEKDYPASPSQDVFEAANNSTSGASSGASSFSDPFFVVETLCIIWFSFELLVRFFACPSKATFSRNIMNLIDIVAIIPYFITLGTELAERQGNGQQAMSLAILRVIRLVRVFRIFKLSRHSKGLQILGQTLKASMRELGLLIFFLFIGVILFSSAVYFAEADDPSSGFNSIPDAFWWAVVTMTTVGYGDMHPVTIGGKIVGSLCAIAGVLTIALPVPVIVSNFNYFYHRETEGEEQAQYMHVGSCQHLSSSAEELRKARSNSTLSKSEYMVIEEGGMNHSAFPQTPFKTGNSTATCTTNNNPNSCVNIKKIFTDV

Row | SMILES | IC50 [1] | IC50 [2] | IC50 [3] | IC50 [4] | Selectivity Kv1.1/Kv1.3 [4] | IC50 [5] | IC50 [6] | Selectivity Kv1.6/Kv1.3 [2]
1 | CC[C@H](C)[C@@H]1NC(=O)[C@H](C)NC(=O)[C@H](CCCCN)NC(=O)[C@H](CCCCN)NC(=O)[C@@H]2CSSC[C@@H](C(=O)N[C@@H](Cc3ccc(O)cc3)C(=O)N3CCC[C@H]3C(=O)N[C@@H](CCCNC(=N)N)C(N)=O)NC(=O)[C@H](CCCCN)NC(=O)[C@@H]3CSSC[C@H](NC(=O)[C@H](CCC(=O)O)NC(=O)[C@H](C(C)C)NC(=O)[C@H](CO)NC(=O)[C@H](C)NC(=O)[C@H](CO)NC(=O)[C@@H](NC(=O)[C@H](CCCNC(=N)N)NC(=O)[C@H](CCSC)NC(=O)[C@H](CC(=O)O)NC(=O)[C@H](CCSC)NC(=O)[C@@H](N)CC(N)=O)CSSC[C@H](NC(=O)[C@H](CCCCN)NC(=O)CNC(=O)[C@H](Cc4ccccc4)NC(=O)[C@H]([C@@H](C)CC)NC(=O)[C@H](CO)NC(=O)CNC1=O)C(=O)N[C@@H](CCSC)C(=O)N[C@@H](CC(N)=O)C(=O)N[C@@H](CCCCN)C(=O)N[C@@H](CCCCN)C(=O)N3)C(=O)N[C@@H](CCCCN)C(=O)N[C@@H](CCC(N)=O)C(=O)N[C@@H](CCCCN)C(=O)N2 [Compound 19] (H-NMDMRCSASVECKQKCKKAIGSIFGKCMNKKCKCYPR-NH2; disulfide 6-27, 12-32, 16-34) | ≤ 1 nM | 435 nM | 0.12 nM | > 3000 nM | >13500 | 0.22 nM | 45 nM | –
2 | CCCC[C@@H]1NC(=O)[C@@H]2CSSC[C@H](NC(=O)[C@H](CCCNC(=N)N)NC(=O)[C@H](CCCC)NC(=O)[C@H](CO)NC(=O)[C@H](CCCC)NC(=O)[C@@H](N)CC(N)=O)C(=O)N[C@@H](CO)C(=O)N[C@@H](C)C(=O)N[C@@H](CO)C(=O)N[C@@H](C(C)C)C(=O)N[C@@H](CCC(=O)O)C(=O)N[C@H]3CSSC[C@H](NC(=O)[C@H](CCCCN)NC(=O)[C@H](CCCCN)NC(=O)[C@H](CC(N)=O)NC1=O)C(=O)N[C@@H](CCCCN)C(=O)N[C@H](C(=O)N[C@@H](Cc1ccc(O)cc1)C(=O)N1CCC[C@H]1C(=O)N[C@@H](CCCNC(=N)N)C(N)=O)CSSC[C@H](NC(=O)[C@H](CCCCN)NC(=O)[C@H](CCC(N)=O)NC(=O)[C@H](CCCCN)NC3=O)C(=O)N[C@@H](CC(C)C)C(=O)N[C@@H](CCCCN)C(=O)N[C@@H](C)C(=O)N[C@@H]([C@@H](C)CC)C(=O)NCC(=O)N[C@@H](CO)C(=O)N[C@@H]([C@@H](C)CC)C(=O)N[C@@H](Cc1ccccc1)C(=O)NCC(=O)N[C@@H](CCCCN)C(=O)N2 [Compound 46] (H-N[Nle]S[Nle]RCSASVECKQKCLKAIGSIFGKC[Nle]NKKCKCYPR-NH2; disulfide 6-27, 12-32, 16-34) | ≤ 1 nM | 1390 nM | 0.11 nM | > 3000 nM | >9400 | 0.32 nM | 302 nM | –
3 | CC[C@H](C)[C@@H]1NC(=O)[C@H](C)NC(=O)[C@H](CCCCN)NC(=O)[C@H](CC(C)C)NC(=O)[C@@H]2CSSC[C@@H](C(=O)N[C@@H](Cc3ccc(O)cc3)C(=O)N3CCC[C@H]3C(=O)N[C@@H](CCCNC(=N)N)C(N)=O)NC(=O)[C@H](CCCCN)NC(=O)[C@@H]3CSSC[C@H](NC(=O)[C@H](CCC(=O)O)NC(=O)[C@H](C(C)C)NC(=O)[C@H](CO)NC(=O)[C@H](C)NC(=O)[C@H](CO)NC(=O)[C@@H](NC(=O)[C@H](CCCNC(=N)N)NC(=O)[C@H](CCSC)NC(=O)[C@H](CC(=O)O)NC(=O)[C@H](CCSC)NC(=O)[C@@H](N)CC(N)=O)CSSC[C@H](NC(=O)[C@H](CCCCN)NC(=O)CNC(=O)[C@H](Cc4ccccc4)NC(=O)[C@H]([C@@H](C)CC)NC(=O)[C@H](CO)NC(=O)CNC1=O)C(=O)N[C@@H](CCSC)C(=O)N[C@@H](CC(N)=O)C(=O)N[C@@H](CCCCN)C(=O)N[C@@H](CCCCN)C(=O)N3)C(=O)N[C@@H](CCCCN)C(=O)N[C@@H](CCC(=O)O)C(=O)N[C@@H](CCCCN)C(=O)N2 [Compound 31] (H-NMDMRCSASVECKEKCLKAIGSIFGKCMNKKCKCYPR-NH2; disulfide 6-27, 12-32, 16-34) | ≤ 1 nM | > 3000 nM | 0.075 nM | > 3000 nM | >10800 | 0.28 nM | 179 nM | >10800
4 | CC[C@H](C)[C@@H]1NC(=O)[C@H](C)NC(=O)[C@H](CCCCN)NC(=O)[C@H](CC(C)C)NC(=O)[C@@H]2CSSC[C@@H](C(=O)N[C@@H](Cc3ccc(O)cc3)C(=O)N3CCC[C@H]3C(=O)N[C@@H](CCCNC(=N)N)C(N)=O)NC(=O)[C@H](CCCCN)NC(=O)[C@@H]3CSSC[C@H](NC(=O)[C@H](CCC(=O)O)NC(=O)[C@H](C(C)C)NC(=O)[C@H](CO)NC(=O)[C@H](C)NC(=O)[C@H](CO)NC(=O)[C@@H](NC(=O)[C@H](CCCNC(=N)N)NC(=O)[C@H](CCSC)NC(=O)[C@H](CC(=O)O)NC(=O)[C@H](CCSC)NC(=O)[C@@H](N)CC(N)=O)CSSC[C@H](NC(=O)[C@H](CCCCN)NC(=O)CNC(=O)[C@H](Cc4ccccc4)NC(=O)[C@H]([C@@H](C)CC)NC(=O)[C@H](CO)NC(=O)[C@H](CCCNC(=N)N)NC1=O)C(=O)N[C@@H](CCSC)C(=O)N[C@@H](CC(N)=O)C(=O)N[C@@H](CCCCN)C(=O)N[C@@H](CCCCN)C(=O)N3)C(=O)N[C@@H](CCCCN)C(=O)N[C@@H](CCC(N)=O)C(=O)N[C@@H](CCCCN)C(=O)N2 [Compound 21] (H-NMDMRCSASVECKQKCLKAIRSIFGKCMNKKCKCYPR-NH2; disulfide 6-27, 12-32, 16-34) | ≤ 1 nM | 626 nM | 0.12 nM | > 3000 nM | >13700 | 0.22 nM | 57 nM | –
5 | CCCC[C@@H]1NC(=O)[C@@H]2CSSC[C@H](NC(=O)[C@H](CCCNC(=N)N)NC(=O)[C@H](CCCC)NC(=O)[C@H](CC(=O)O)NC(=O)[C@@H](N)CCCC)C(=O)N[C@@H](CO)C(=O)N[C@@H](C)C(=O)N[C@@H](CO)C(=O)N[C@@H](C(C)C)C(=O)N[C@@H](CCC(=O)O)C(=O)N[C@H]3CSSC[C@H](NC(=O)[C@H](CCCCN)NC(=O)[C@H](CCCCN)NC(=O)[C@H](CC(N)=O)NC1=O)C(=O)N[C@@H](CCCCN)C(=O)N[C@H](C(=O)N[C@@H](Cc1ccc(O)cc1)C(=O)N1CCC[C@H]1C(=O)N[C@@H](CCCNC(=N)N)C(=O)O)CSSC[C@H](NC(=O)[C@H](CCCCN)NC(=O)[C@H](CCC(N)=O)NC(=O)[C@H](CCCCN)NC3=O)C(=O)N[C@@H](CC(C)C)C(=O)N[C@@H](CCCCN)C(=O)N[C@@H](C)C(=O)N[C@@H]([C@@H](C)CC)C(=O)NCC(=O)N[C@@H](CO)C(=O)N[C@@H]([C@@H](C)CC)C(=O)N[C@@H](Cc1ccccc1)C(=O)NCC(=O)N[C@@H](CCCCN)C(=O)N2 [Compound 94] (H-[Nle]D[Nle]RCSASVECKQKCLKAIGSIFGKC[Nle]NKKCKCYPR-OH; disulfide 5-26, 11-31, 15-33) | ≤ 1 nM | > 3000 nM | 0.16 nM | > 3000 nM | >17800 | 0.17 nM | 1860 nM | >17800
6 | CCCC[C@@H]1NC(=O)[C@@H]2CSSC[C@H](NC(=O)[C@H](CCCNC(=N)N)NC(=O)[C@H](CCCC)NC(=O)[C@H](CC(=O)O)NC(=O)[C@H](CCCC)NC(=O)[C@@H](N)CC(N)=O)C(=O)N[C@@H](CO)C(=O)N[C@@H](Cc3c[nH]cn3)C(=O)N[C@@H](CO)C(=O)N[C@@H](C(C)C)C(=O)N[C@@H](CCC(=O)O)C(=O)N[C@H]3CSSC[C@H](NC(=O)[C@H](CCCCN)NC(=O)[C@H](CCCCN)NC(=O)[C@H](CC(N)=O)NC1=O)C(=O)N[C@@H](CCCCN)C(=O)N[C@H](C(=O)N[C@@H](Cc1ccc(O)cc1)C(=O)N1CCC[C@H]1C(=O)N[C@@H](CCCNC(=N)N)C(N)=O)CSSC[C@H](NC(=O)[C@H](CCCCN)NC(=O)[C@H](CCC(N)=O)NC(=O)[C@H](CCCCN)NC3=O)C(=O)N[C@@H](CC(C)C)C(=O)N[C@@H](CCCCN)C(=O)N[C@@H](C)C(=O)N[C@@H]([C@@H](C)CC)C(=O)NCC(=O)N[C@@H](CO)C(=O)N[C@@H]([C@@H](C)CC)C(=O)N[C@@H](Cc1ccccc1)C(=O)NCC(=O)N[C@@H](CCCCN)C(=O)N2 [Compound 47] (H-N[Nle]D[Nle]RCSHSVECKQKCLKAIGSIFGKC[Nle]NKKCKCYPR-NH2; disulfide 6-27, 12-32, 16-34) | ≤ 1 nM | 609 nM | 0.12 nM | > 3000 nM | >5600 | 0.54 nM | 772 nM | –
7 | CCCC[C@H](NC(=O)[C@H](CC(=O)O)NC(=O)[C@H](CCCC)NC(=O)[C@@H](N)CO)C(=O)N[C@@H](CCCNC(=N)N)C(=O)N[C@H]1CSSC[C@@H]2NC(=O)[C@H](CCCCN)NC(=O)CNC(=O)[C@H](Cc3ccccc3)NC(=O)[C@H]([C@@H](C)CC)NC(=O)[C@H](CO)NC(=O)CNC(=O)[C@H]([C@@H](C)CC)NC(=O)[C@H](C)NC(=O)[C@H](CCCCN)NC(=O)[C@H](CC(C)C)NC(=O)[C@@H]3CSSC[C@@H](C(=O)N[C@@H](Cc4ccc(O)cc4)C(=O)N4CCC[C@H]4C(=O)N[C@@H](CCCNC(=N)N)C(N)=O)NC(=O)[C@H](CCCCN)NC(=O)[C@H](CSSC[C@H](NC(=O)[C@H](CCC(=O)O)NC(=O)[C@H](C(C)C)NC(=O)[C@H](CO)NC(=O)[C@H](C)NC(=O)[C@H](CO)NC1=O)C(=O)N[C@@H](C)C(=O)N[C@@H](CCC(N)=O)C(=O)N[C@@H](CO)C(=O)N3)NC(=O)[C@H](CCCCN)NC(=O)[C@H](CCCCN)NC(=O)[C@H](CC(N)=O)NC(=O)[C@H](CCSC)NC2=O [Compound 79] (H-S[Nle]D[Nle]RCSASVECAQSCLKAIGSIFGKCMNKKCKCYPR-NH2; disulfide 6-27, 12-32, 16-34) | – | > 3000 nM | 0.13 nM | > 3000 nM | >14600 | 0.21 nM | 1150 nM | >14600
